{
  "source": "patent US6383490B1",
  "about": "“Anti-cocaine vaccine” (The Scripps Research Institute, priority 1995, dated 2002)",
  "key": {"[1]": {"tested_on": "cocaine-binding immunoglobulins", "test": "Competitive binding studies of the immune response (cocaine-binding immunoglobulins)", "text": "Consequently, inhibition of cocaine-binding immunoglobulins would not be expected in vivo from these metabolites."}, "[2]": {"test": "Plasma cocaine levels by HPLC", "assay_type": "in vivo, rat", "settings": "15 mg/kg i.p.", "text": "Analysis of serum immunoglobulin dissociation kinetics, antigen-binding capacity and the effect of antigen dilution (P. Minden, et al., in Handbook of Experimental Immunology. Weir, D. M., Ed., (Davis Co., Philadelphia, 1967), chap. 13, pp. 463-492; M. W. Steward et al., Antibody Affinity: Thermodynamic Aspects and Biological Significance, (CRC Press, Boca Raton, Fla., 1983); H. N. Eisen, in Methods in Medical Research. Eisen, H. N., Ed., (Yearbook Medical Publishers, Chicago, 1964), pp. 106-114; J. H. Hill, et al. Clin. Exp. Immunol. (1973): vol. 15, p 213-224.) were consistent with an in vivo antibody excess having a micromolar average binding constant. […] To complement these experiments, plasma cocaine levels were determined by HPLC according to a modified method of Benuck (M. Benuck, et al., J. Pharmacol. Exp. Ther.(1987): vol. 243, p 144-149) following a 15 mg/kg i.p. injection in a separate group of animals."}},
  "data": [
    {"smiles": "CN1[C@H]2CC[C@@H]1[C@@H](C(=O)O)[C@@H](OC(=O)c1ccccc1)C2", "note": "[benzoylecgonine]", "values": [
      {"measurement": "discrimination for cocaine versus competitor", "setting": "[1]; immune response to hapten 4 conjugate", "result": "greater than 900 fold"}
    ]},
    {"smiles": "COC(=O)[C@H]1[C@@H](OC(=O)c2ccccc2)C[C@@H]2CC[C@H]1N2C", "note": "[cocaine, (−)-cocaine]", "values": [
      {"measurement": "peak plasma concentration", "setting": "[2]", "result": "5.56 ± 0.31", "unit": "µM"},
      {"measurement": "time of peak plasma concentration", "setting": "[2]", "result": 5, "unit": "min"},
      {"measurement": "half-life", "setting": "[2]; Wistar, rat, plasma, ip", "result": 25, "unit": "min"}
    ]},
    {"smiles": "COC(=O)[C@@H]1[C@H]2CC[C@@H](C[C@@H]1O)N2C", "note": "[ecgonine methyl ester]", "values": [
      {"measurement": "inhibition of cocaine-binding by competitor", "setting": "[1]", "result": "no detectable inhibition"}
    ]}
  ]
}
